Tests used:
physchem = experiment: physchem
Experimental: (§1) To enable parameter-based comparison of compound conversion across incubation matrices, apparent first-order kinetic parameters were calculated from precursor compound depletion data. Only quantifiable time points were considered. Because these values represent apparent kinetic estimates derived from a limited number of sampling points, they were interpreted primarily for comparative purposes. Detailed experimental conditions and analytical parameters are provided in Supplementary Tab. S2.
(§2) Table S1: Composition of the modified SHIME®-based regeneration media.
(§3) To evaluate microbial xenobiotic metabolism under defined conditions, incubations were conducted using model substrates representing major biotransformation classes: 4- […]
(§4) reduction), and nitrendipine (nitro group reduction). Reaction mixtures were prepared under anaerobic conditions (37°C, 24 h) as follows: (i) 210 µL SHIME® saline containing the fiber-rich substrate formulation with 1 g L-1 mucin, pectin, and xylan (substrate control), (ii) 150 µL pooled fecal suspension (three individual pools with n = 3 donors each, 1:10 diluted in SHIME® saline) + 60 µL fiber-rich substrate, (iii) […] pooled exoenzyme fraction (three individual pools with n = 3 donors each, 1:10 in SHIME® saline), and (iv) 150 µL bacterial colon model + 60 µL fiber-rich substrate. All incubations contained 500 µM of the respective test compound.
(§5) At defined time points, samples were mixed 1:1 (v/v) with ethanol, vortexed, and centrifuged […]
(§6) (18,000 × g, 3 min). The resulting supernatant was combined 1:1 (v/v) with acetonitrile (100 %) […]
The clarified supernatant was diluted with the mobile phase prior to injection. Non-polar and UV-absorbing compounds were analyzed on a Knauer Eurospher II C8 column (250 × 4 mm, 5 µm) with a C8 guard cartridge using an AZURA CT 2 system (Knauer, Berlin, Germany) equipped with a SpectraSystem SCM1000 degasser, P4000 pump, AS3000 autosampler, and UVD 2.1L detector. Paracetamol was analyzed on a Shodex Asahipak NH2P-50 3E column (Showa Denko, Japan) with a corresponding guard column and an RI-101 detector (Ercatech AG, Germany). Chromatographic parameters, including mobile-phase composition, column temperature, flow rate, and detection wavelength are summarized in Suppl. Tab. […]. Quantification of parent compounds and metabolites was performed by external calibration using analytical reference standards.
(§7) Table S2: Chromatographic conditions for HPLC-based detection of selected xenobiotics and their microbial transformation products. Analytes were separated on either C8 or amino columns under compound-specific conditions. Mobile phases consisted of acetonitrile (ACN) with acidic modifiers and were operated under isocratic flow. Detection wavelengths correspond to the absorbance maxima […]
(§8) Column Mobile phase Tempera Flow rate UV detection […]
To confirm the identity of selected biotransformation products, representative samples were analyzed by liquid chromatography-mass spectrometry (LC-MS). Samples were mixed 1:1 (v/v) with ethanol and centrifuged (18,000 × g, 5 min). From the resulting supernatant, 50 µL were diluted in 450 µL H₂O: ACN (70:30, v/v). Prior to analysis, samples were filtered through

[1] = tested on: pooled human fecal slurry; experiment: in vitro
Experimental: as §1
(§9) To evaluate the metabolic capabilities of the human colon model presented here, a panel of structurally diverse xenobiotics was selected based on microbial biotransformation reactions reported in the literature (Fig. 7, Supplementary Fig. S2). […] Together, these reference substrates served as model compounds covering major gut microbial transformation chemistries, enabling a matrix-to-matrix performance evaluation of the colon model. […] Product levels were estimated using the nitrendipine calibration and are therefore semi-quantitative.
as §2, §3
(§10) reduction), and nitrendipine (nitro group reduction). Reaction mixtures were prepared under […]
as §4, with “rich” for “reduction), and nitrendipine (nitro group reduction). Reaction mixtures were prepared under anaerobic conditions (37°C, 24 h) as follows: (i) 210 µL SHIME® saline containing the fiber-rich”
as §5, §6
(§11) The clarified supernatant was diluted with the mobile phase prior to injection. Non-polar and UV-absorbing compounds were analyzed on a Knauer Eurospher II C8 column (250 × 4 mm, 5 µm) with a C8 guard cartridge using an AZURA CT 2 system (Knauer, Berlin, Germany) equipped with a SpectraSystem SCM1000 degasser, P4000 pump, AS3000 autosampler, and UVD 2.1L detector. Paracetamol was analyzed on a Shodex Asahipak NH2P-50 3E column (Showa Denko, Japan) with a corresponding guard column and an RI- […]
(§12) Chromatographic parameters, including mobile-phase composition, column temperature, flow rate, and detection wavelength are summarized in Suppl. Tab. S1. Quantification of parent compounds and metabolites was performed by external calibration using analytical reference standards.
as §7, §8

bacterial colon model = experiment: in vitro; details: for apparent first-order rate constant (k): 500 µM
Experimental: (§13) Our model was based on the isolation of intact bacterial communities from human feces. Bacterial isolation was performed using a modified density gradient centrifugation protocol first described by Hevia et al. ([2015]). To detach bacteria adhering to particulate matter and embedded within fecal biofilms, 0.001% (w/v) cetyltrimethylammonium bromide (CTAB) was added to each diluted fecal sample 30 min prior to further processing (Macfarlane et al. [1997]). All steps involving open sample handling were conducted under strictly anaerobic conditions (79% N2, 19% CO2, 2% H2) within a vinyl anaerobic chamber (Coy Laboratory Products, Grass Lake, Michigan, USA). Samples from three donors were randomly pooled for each preparation to reduce variability among individuals. From each pooled and diluted fecal suspension, 15 mL were layered onto 3.5 mL of 55% (w/v) Nycodenz® (Serumwerk Bernburg AG, Bernburg, Germany) in anaerobic centrifuge tubes. The samples were then centrifuged at 4000 × g for 30 min at room temperature.
(§14) To further purify the extracellular enzyme (exoenzyme) fraction, the supernatant was centrifuged at 18,000 × g for 3 min at 4 °C. The resulting preparation was then sterile-filtered three times through 0.22-µm syringe filters to ensure complete removal of remaining microbial cells. The sterile exoenzyme fraction was stored anaerobically at −70 °C until further use. The middle layer, which contained the gut bacteria, was collected and referred to as the bacterial colon model. The isolated microbiota was then diluted in sterile 50% (v/v) glycerol and stored at −70 °C under anaerobic conditions. Prior to use in experiments, the cryopreserved cells were washed three times with modified SHIME® saline (18,000 × g, 3 min, 4 °C) to remove any remaining Nycodenz®, glycerol, and particulate material. The final cell suspension was adjusted to an optical density at 600 nm (OD600) of 10, corresponding to approximately 1.43 × 10^10 cells mL^−1, as determined microscopically using a Neubauer counting chamber (Hager et al. [2025]). This microbial density was about 16% of the mean in vivo bacterial concentration in the human colon, estimated at 8.8 × 10^10 cells mL^−1 (assuming a fecal density of 1.04 g mL^−1 (Sender et al. [2016])).
as §1
(§15) To evaluate the metabolic capabilities of the human colon model presented here, a panel of structurally diverse xenobiotics was selected based on microbial biotransformation reactions reported in the literature (Fig. 7, Supplementary Fig. S2). […] Together, these reference substrates served as model compounds covering major gut microbial transformation chemistries, enabling a matrix-to-matrix performance evaluation of the colon model. All compounds were incubated anaerobically for 24 h with pooled human fecal slurry, the bacterial colon model, and the sterile-filtered fecal exoenzyme fraction, derived from three independent donor pools (n = 3 each).

[2] = Xenobiotic depletion in the sterile-filtered fecal exoenzyme fraction; type: in vitro ADME, human; details: human, sterile-filtered fecal exoenzyme fraction (cell-free), 500 µM test compound, anaerobic, 37°C, 24 h, three donor pools, read-out: half-life (t1/2) (converted)
Experimental: (§16) To further purify the extracellular enzyme (exoenzyme) fraction, the supernatant was centrifuged at 18,000 × g for 3 min at 4 °C. The resulting preparation was then sterile-filtered three times through 0.22-µm syringe filters to ensure complete removal of remaining microbial cells. The sterile exoenzyme fraction was stored anaerobically at −70 °C until further use. The middle layer, which contained the gut bacteria, was collected and referred to as the bacterial colon model. The isolated microbiota was then diluted in sterile 50% (v/v) glycerol and stored at −70 °C under anaerobic conditions.
as §1, §9, §2, §3, §10
as §4, with “rich” for “reduction), and nitrendipine (nitro group reduction). Reaction mixtures were prepared under anaerobic conditions (37°C, 24 h) as follows: (i) 210 µL SHIME® saline containing the fiber-rich”
as §5, §6, §11
(§17) Chromatographic parameters, including mobile-phase composition, column temperature, flow rate, and detection wavelength are summarized in Suppl. Tab. S1. Quantification of parent compounds and metabolites was performed by […]

[3] = tested on: sterile-filtered fecal exoenzyme fraction; experiment: as above; type: in vitro ADME, human; details: anaerobic, 24 h
Experimental: as §16, §1, §9, §2, §3, §10
as §4, with “rich” for “reduction), and nitrendipine (nitro group reduction). Reaction mixtures were prepared under anaerobic conditions (37°C, 24 h) as follows: (i) 210 µL SHIME® saline containing the fiber-rich”
as §5, §6, §11, §17

in vitro = details: human
Experimental: as §1, §9, §2, §3, §10
as §4, with “rich” for “reduction), and nitrendipine (nitro group reduction). Reaction mixtures were prepared under anaerobic conditions (37°C, 24 h) as follows: (i) 210 µL SHIME® saline containing the fiber-rich”
as §5, §6, §11, §12, §7, §8

[4] = Xenobiotic depletion in the bacterial colon model, anaerobic incubation; details: human
Experimental: as §13, §14, §1, §15

[5] = 500 µM test compound, 37°C, three donor pools
[6] = buffer, 500 µM test compound, anaerobic, 37°C, 24 h
[7] = fecal slurry, 500 µM test compound, anaerobic, 37°C, 24 h, three donor pools

| SMILES | apparent first-order rate constant (k) (physchem; 500 µM) [h⁻¹] | half-life at 500 µM (physchem; buffer) [h] | apparent first-order rate constant (k) ([1]; human, 500 µM) [h⁻¹] | apparent first-order rate constant (k) (bacterial colon model; human) [h⁻¹] | half-life at 500 µM [2] [h] | apparent first-order rate constant (k) [3, 5] [h⁻¹] | half-life at 500 µM (in vitro) [h] | half-life at 500 µM [4] [h] | conversion in the exoenzyme fraction (in words) [3] | apparent first-order rate constant (k) (physchem; [6]) [h⁻¹] | half-life (t1/2) (physchem; [6]) [h] | conversion in fecal slurry (in words) ([1]; fecal slurry, anaerobic, 24 h) | apparent first-order rate constant (k) [1, 7] [h⁻¹] | half-life (t1/2) [1, 7] [min] | conversion in the bacterial colon model (in words) (bacterial colon model) | half-life (t1/2) (bacterial colon model; human) [min] | half-life (t1/2) [3, 5] [min] | conversion in the exoenzyme fraction (in words) ([3]; listed as 4-acetoxyacetanilide) |
| --- | --- | --- | --- | --- | --- | --- | --- | --- | --- | --- | --- | --- | --- | --- | --- | --- | --- | --- |
| O=C(O)c1cc(/N=N/c2ccc(S(=O)(=O)Nc3ccccn3)cc2)ccc1O [Sulfasalazine, sulfasalazine] | 0.002 | > 24 | 0.93 | 1.20 | > 24 | 0.003 | – | – | – | – | – | – | – | – | – | – | – | – |
| CC1=C(CC(=O)O)c2cc(F)ccc2/C1=C\c1ccc([S+](C)[O-])cc1 (centres unmarked) [Sulindac, sulindac] | 0.0003 | > 24 | 0.12 | 0.20 | > 24 | 0.003 | 5.78 | 3.47 | no meaningful conversion | – | – | – | – | – | – | – | – | – |
| CC(=O)Nc1ccc(OC(C)=O)cc1 [4-Acetoxyacetanilide, 4-acetoxyacetanilide] | – | – | – | – | – | 13.46 | – | – | clear hydrolytic activity | 0.02 | > 24 | rapidly degraded | 15.38 | 3 | rapidly degraded | 1.8 | 3 | relevant activity |
| CC(=O)OCC(=O)NCCCOc1cccc(CN2CCCCC2)c1 [Roxatidine-acetate, roxatidine-acetate] | 0.005 | > 24 | 1.16 | 1.13 | 4.33 | 0.16 | 0.6 | 0.61 | – | – | – | – | – | – | – | – | – | – |
| CCOC(=O)C1=C(C)NC(C)=C(C(=O)OC)C1c1cccc([N+](=O)[O-])c1 (centres unmarked) [Nitrendipine, nitrendipine] | 0.0009 | > 24 | 0.44 | 0.92 | > 24 | 0.002 | 1.58 | 0.75 | no relevant conversion | – | – | – | – | – | – | – | – | – |
| O=C(N[C@H](CO)[C@H](O)c1ccc([N+](=O)[O-])cc1)C(Cl)Cl [Chloramphenicol, chloramphenicol] | – | > 24 | 0.45 | 0.47 | > 24 | 0.003 | 1.54 | 1.47 | – | – | – | – | – | – | – | – | – | – |

From paper PMC13222238, “Development of a gut microbiota model for the analysis of bacterial modifications of xenobiotics” (Applied Microbiology and Biotechnology, 2026)
